For 36 molecules, Ratio IC50 and IC50 results are on record in ChEMBL document CHEMBL5393444, “Sulfonamide derivatives as ctps1 inhibitors” (2022).

The species named for experiment [1] is Homo sapiens. As to the kind of experiment: Selectivity ratio of IC50 for human CTPS2 to IC50 for human CTPS1 by RapidFire/MS analysis.
Experiment [2] concerns the target T1, CTP synthase 1 (Homo sapiens, UniProt P17812).
T1 sequence (P17812 whole entry): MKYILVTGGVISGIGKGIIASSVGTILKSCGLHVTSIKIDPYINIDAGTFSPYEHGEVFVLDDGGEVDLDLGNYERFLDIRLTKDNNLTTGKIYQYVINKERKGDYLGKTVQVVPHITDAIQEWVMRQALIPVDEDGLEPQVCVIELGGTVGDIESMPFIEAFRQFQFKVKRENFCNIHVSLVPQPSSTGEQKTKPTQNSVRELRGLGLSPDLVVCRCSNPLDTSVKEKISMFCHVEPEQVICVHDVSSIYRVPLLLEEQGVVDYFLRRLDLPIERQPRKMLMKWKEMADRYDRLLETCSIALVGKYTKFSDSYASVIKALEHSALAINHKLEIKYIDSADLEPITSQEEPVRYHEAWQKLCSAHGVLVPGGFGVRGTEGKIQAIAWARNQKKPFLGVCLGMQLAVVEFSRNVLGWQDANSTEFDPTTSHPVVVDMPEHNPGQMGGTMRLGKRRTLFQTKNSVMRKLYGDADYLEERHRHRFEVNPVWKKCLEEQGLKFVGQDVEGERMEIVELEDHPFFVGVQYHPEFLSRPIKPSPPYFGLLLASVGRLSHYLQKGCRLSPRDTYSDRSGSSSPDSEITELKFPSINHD
The experiment in a line: Inhibition of C-terminal FLAG-His8-tagged full length human CTPS1 preincubated for 10 mins followed by substrate addition by ADP-Glo assay. Background: In ADP-Glo the light output rises with the ADP produced.

For orientation: IC50 means the concentration at which inhibition is half-maximal. The low end stands for greater potency in that assay, the high end for weaker potency in that assay. In the case of `CCC(C(=O)Nc1ccc(-c2cncc(OC(C)C)n2)cn1)c1ccnc(NS(=O)(=O)C2CC2)n1` (configuration not stated), the Ratio IC50 in experiment [1] is greater than 60. In experiment [2], this molecule gave a concentration for half-maximal inhibition (IC50) of no more than 100 nM.

Turning to `CCC(C(=O)Nc1ccc(-c2cncc(OCC(F)(F)F)n2)cc1F)c1ccnc(NS(=O)(=O)C2CC2)n1` (configuration not stated), in experiment [1], the Ratio IC50 is greater than 60. The concentration for half-maximal inhibition (IC50) in experiment [2] was no more than 100 nM.

`CCOc1cncc(-c2ccc(NC(=O)C3(c4ccnc(NS(=O)(=O)C5CC5)n4)CCC(=O)CC3)nc2)n1`: in experiment [1], the Ratio IC50 was greater than 60. Also, the IC50 in experiment [2] is no more than 100 nM.

Consider `CCOc1cncc(-c2ccc(NC(=O)C3(c4ccnc(NS(=O)(=O)C5CC5)n4)CCC4(CC3)OCCO4)nc2)n1`, for which, in experiment [1], the Ratio IC50 is greater than 60. The same molecule returned an IC50 in experiment [2] of no more than 100 nM.

On to `CCOc1cncc(-c2ccc(NC(=O)C3(c4ccnc(NS(=O)(=O)C5CC5)n4)CCCC3)nc2)n1`, for which the Ratio IC50 in experiment [1] is greater than 60. In experiment [2], the IC50 is no more than 100 nM.

Regarding `CCOc1cncc(-c2ccc(NC(=O)C3(c4cncc(NS(=O)(=O)C5CC5)n4)CCOCC3)nc2)n1`, the Ratio IC50 in experiment [1] is greater than 60. Moreover, in experiment [2], the IC50 is no more than 100 nM.

`CCC(C(=O)Nc1ccc(-c2cncc(C(F)(F)F)n2)cn1)c1ccnc(NS(=O)(=O)C2CC2)n1` (configuration not stated): in experiment [1], the Ratio IC50 was 30. Also, in experiment [2], the 50% inhibitory concentration (IC50) was no more than 100 nM.

For the molecule `CCOc1cncc(-c2ccc(NC(=O)C(C)(C)c3ccnc(NS(=O)(=O)C4CC4)n3)c(C#N)c2)n1`, in experiment [1], the Ratio IC50 turned out to be 2. The molecule also yielded a concentration for half-maximal inhibition (IC50) in experiment [2] of no more than 100 nM.

Take `CCOc1cncc(-c2ccc(NC(=O)C(CC)c3cncc(NS(=O)(=O)C4CC4)n3)nc2)n1` (configuration not stated): the Ratio IC50 in experiment [1] is greater than 60. Further, the IC50 in experiment [2] is no more than 100 nM.

`CC(C)Oc1cncc(-c2ccc(NC(=O)C(C)(C)c3ccnc(NS(=O)(=O)C4CC4)n3)nc2)n1`: the Ratio IC50 in experiment [1] is greater than 60. In experiment [2], the IC50 is no more than 100 nM.

Consider `CCOc1cncc(-c2ccc(NC(=O)C(CC)c3ccnc(NS(=O)(=O)C4CC4)n3)c(F)c2)n1` (configuration not stated), for which the Ratio IC50 in experiment [1] was found to be 2. In experiment [2], the 50% inhibitory concentration (IC50) was no more than 100 nM.

Consider `CCOc1cncc(-c2ccc(NC(=O)C(CC)c3ccnc(NS(=O)(=O)C4CC4)n3)nc2)n1` (configuration not stated), for which, in experiment [1], the Ratio IC50 is greater than 60. In experiment [2], this molecule showed an IC50 of no more than 100 nM.

For the molecule `CCOc1cncc(-c2ccc(C(=O)NCc3ccnc(NS(=O)(=O)C4CC4)n3)cc2)n1`, the Ratio IC50 in experiment [1] was greater than 60. The IC50 in experiment [2] is no more than 100 nM.

In the case of `CCOc1cncc(-c2ccc(NC(=O)C(CC)c3cccc(NS(=O)(=O)C4CC4)n3)nc2)n1` (configuration not stated), in experiment [1], the Ratio IC50 turned out to be 30. In experiment [2], this molecule registered an IC50 of no more than 100 nM.

Consider `CCOc1cncc(-c2ccc(NC(=O)C(C)(C)c3cncc(NS(=O)(=O)C4CC4)n3)nc2)n1`, for which, in experiment [1], the Ratio IC50 was greater than 60. In experiment [2], the IC50 is no more than 100 nM.

Consider `CCOc1cncc(-c2cnc(NC(=O)C(CC)c3ccnc(NS(=O)(=O)C4CC4)n3)c(F)c2)n1` (configuration not stated), for which the Ratio IC50 in experiment [1] was 30. In experiment [2], this molecule came in with an IC50 of no more than 100 nM.

With `CCC(C(=O)Nc1ccc(-c2cncc(OC)n2)cn1)c1ccnc(NS(=O)(=O)C2CC2)n1` (configuration not stated), in experiment [1], the Ratio IC50 is greater than 60. Besides, the concentration for half-maximal inhibition (IC50) in experiment [2] is no more than 100 nM.

On to `CCC(C(=O)Nc1ccc(-c2cncc(OCC(F)(F)F)n2)cc1)c1ccnc(NS(=O)(=O)C2CC2)n1` (configuration not stated), for which the Ratio IC50 in experiment [1] was greater than 60. Besides, in experiment [2], the IC50 is no more than 100 nM.

`CCOc1cncc(-c2ccc(NC(=O)C3(c4ccnc(NS(=O)(=O)C5CC5)n4)CC3)cc2)n1`: in experiment [1], the Ratio IC50 is greater than 60. For the same molecule, the IC50 in experiment [2] was no more than 100 nM.

For `CCC(C(=O)Nc1ccc(-c2cncc(OC)n2)cc1F)c1ccnc(NS(=O)(=O)C2CC2)n1` (configuration not stated), the Ratio IC50 in experiment [1] turned out to be 2. This molecule displayed a concentration for half-maximal inhibition (IC50) in experiment [2] of no more than 100 nM.

Regarding `CCOc1cncc(-c2ccc(NC(=O)C3(c4ccnc(NS(=O)(=O)C5CC5)n4)CCOCC3)c(F)c2)n1`, in experiment [1], the Ratio IC50 is greater than 60. In experiment [2], this molecule yielded a 50% inhibitory concentration (IC50) of no more than 100 nM.

In the case of `CCOc1cncc(-c2ccc(NC(=O)C(F)(CC)c3ccnc(NS(C)(=O)=O)n3)nc2)n1` (configuration not stated), the Ratio IC50 in experiment [1] was greater than 60. In experiment [2], this molecule displayed an IC50 of no more than 100 nM.

For `CCOc1cncc(-c2ccc(NC(=O)C3(c4ccnc(NS(=O)(=O)CC#N)n4)CCOCC3)nc2)n1`, the Ratio IC50 in experiment [1] is greater than 60. This molecule showed an IC50 in experiment [2] of no more than 100 nM.

For the molecule `CCOc1cncc(-c2ccc(NC(=O)C3(c4ccnc(NS(=O)(=O)C5CC5)n4)CCN(S(C)(=O)=O)CC3)nc2)n1`, in experiment [1], the Ratio IC50 is greater than 60. Besides, the 50% inhibitory concentration (IC50) in experiment [2] was no more than 100 nM.

As for `CCOc1cncc(-c2ccc(NC(=O)C3(c4ccnc(NS(=O)(=O)C5CC5)n4)CCOCC3)nc2)n1`, the Ratio IC50 in experiment [1] is greater than 60. Further, in experiment [2], the concentration for half-maximal inhibition (IC50) is no more than 100 nM.

For the molecule `CCOc1cncc(-c2ccc(C(=O)NC(CC)c3ccnc(NS(=O)(=O)C4CC4)n3)c(F)c2)n1` (configuration not stated), in experiment [1], the Ratio IC50 was greater than 60. This molecule also displayed a half-maximal inhibitory concentration (IC50) in experiment [2] of no more than 100 nM.

In the case of `CC(C)Oc1cncc(-c2ccc(NC(=O)Cc3ccnc(NS(=O)(=O)C4CC4)n3)c(F)c2)n1`, in experiment [1], the Ratio IC50 was found to be 30. In experiment [2], this molecule gave an IC50 of no more than 100 nM.

As to `CCOc1cncc(-c2ccc(NC(=O)C(CC)c3cncc(NS(=O)(=O)C4CC4)n3)cc2)n1` (configuration not stated), the Ratio IC50 in experiment [1] was greater than 60. Further, the half-maximal inhibitory concentration (IC50) in experiment [2] is no more than 100 nM.

Consider `CCOc1cncc(-c2ccc(NC(=O)C3(c4ccnc(NS(=O)(=O)C5CC5)n4)CCCC3)cc2)n1`, for which, in experiment [1], the Ratio IC50 is greater than 60. The molecule further gave an IC50 in experiment [2] of no more than 100 nM.

In the case of `CCOc1cncc(-c2ccc(NC(=O)Cc3ccnc(NS(=O)(=O)C4CC4)n3)cc2)n1`, the Ratio IC50 in experiment [1] was 30. This molecule yielded a half-maximal inhibitory concentration (IC50) in experiment [2] of no more than 100 nM.

Take `CCOc1cncc(-c2ccc(NC(=O)C(C)(C)c3ccnc(NS(=O)(=O)C4CC4)n3)nc2)n1`: in experiment [1], the Ratio IC50 is greater than 60. Moreover, the IC50 in experiment [2] was no more than 100 nM.

Consider `CC(C)Oc1cncc(-c2ccc(NC(=O)C(C)(C)c3ccnc(NS(=O)(=O)C4CC4)n3)c(F)c2)n1`, for which, in experiment [1], the Ratio IC50 stood at 2. The IC50 in experiment [2] was no more than 100 nM.

On to `CCOc1cncc(-c2ccc(NC(=O)C(C)(CC)c3ccnc(NS(=O)(=O)C4CC4)n3)nc2)n1` (configuration not stated), for which the Ratio IC50 in experiment [1] is greater than 60. In addition, in experiment [2], the IC50 was no more than 100 nM.

With `CCOc1cncc(-c2ccc(NC(=O)C(C)(C)c3ccnc(NS(=O)(=O)C4CC4)n3)c(F)c2)n1`, the Ratio IC50 in experiment [1] amounted to 2. In addition, the IC50 in experiment [2] is no more than 100 nM.

In the case of `CCOc1cncc(-c2ccc(NC(=O)C(C)(C)c3ccnc(NS(=O)(=O)C4CC4)n3)cc2)n1`, the Ratio IC50 in experiment [1] was found to be 2. In addition, the IC50 in experiment [2] is no more than 100 nM.

Take `CCOc1cncc(-c2ccc(NC(=O)C(CCOC)c3ccnc(NS(=O)(=O)C4CC4)n3)c(F)c2)n1` (configuration not stated): in experiment [1], the Ratio IC50 was greater than 60. In experiment [2], this molecule came in with a concentration for half-maximal inhibition (IC50) of no more than 100 nM.
